Data as given in ChEMBL document CHEMBL1128012, “Non-peptide-based inhibitors of human immunodeficiency virus-1 protease” (Bioorg Med Chem Lett, 1994).

Molecular target: T1, Human immunodeficiency virus type 1 protease (Human immunodeficiency virus 1, UniProt Q72874)
Test: Inhibitory activity was evaluated against HIV-1 protease; call rule not given here

Row | SMILES | IC50 [µM]
1 | O=C1N(Cc2ccc(CBr)cc2)C(Cc2ccccc2)P(=O)(O)C(Cc2ccccc2)N1Cc1ccc(CBr)cc1 (stereo not drawn) | 18
2 | O=C1N(Cc2ccc(CO)cc2)C(Cc2ccccc2)P(=O)(O)C(Cc2ccccc2)N1Cc1ccc(CO)cc1 (stereo not drawn) | 4.8
3 | O=C1N(Cc2ccc3ccccc3c2)C(Cc2ccccc2)P(=O)(O)C(Cc2ccccc2)N1Cc1ccc2ccccc2c1 (racemic) | 0.26

Next, values leading:

Row | IC50 [µM] | SMILES
4 | 21 | O=C1N(Cc2ccccc2)C(Cc2ccccc2)P(=O)(O)C(Cc2ccccc2)N1Cc1ccccc1 (stereo not drawn)
5 | > 100 | O=C1NC(Cc2ccccc2)P(=O)(O)C(Cc2ccccc2)N1 (stereo not drawn)
6 | 0.7 | O=C1N(Cc2ccc(CBr)cc2)C(Cc2ccccc2)P(=O)(O)C(Cc2ccccc2)N1Cc1ccc(CBr)cc1 (racemic)
7 | 0.24 | O=C1N(Cc2ccc(CO)cc2)C(Cc2ccccc2)P(=O)(O)C(Cc2ccccc2)N1Cc1ccc(CO)cc1 (racemic)
8 | > 100 | O=C1NC(Cc2ccccc2)P(=O)(O)C(Cc2ccccc2)N1 (racemic)

Molecular target: T1, Human immunodeficiency virus type 1 protease
Test: Inhibitory activity was evaluated against HIV-1 protease; Not Active

Row | SMILES | IC50
9 | COP1(=O)C(Cc2ccccc2)N(Cc2ccccc2)C(=O)N(Cc2ccccc2)C1Cc1ccccc1 (stereo not drawn) | Not Active
10 | COP1(=O)C(Cc2ccccc2)NC(=O)NC1Cc1ccccc1 (stereo not drawn) | Not Active
11 | COP1(=O)C(Cc2ccccc2)N(Cc2ccc(CBr)cc2)C(=O)N(Cc2ccc(CBr)cc2)C1Cc1ccccc1 (stereo not drawn) | Not Active
12 | COP1(=O)C(Cc2ccccc2)N(Cc2ccc3ccccc3c2)C(=O)N(Cc2ccc3ccccc3c2)C1Cc1ccccc1 (stereo not drawn) | Not Active
13 | COP1(=O)C(Cc2ccccc2)N(Cc2ccc(CO)cc2)C(=O)N(Cc2ccc(CO)cc2)C1Cc1ccccc1 (stereo not drawn) | Not Active
